# Measurements reported in the supplement of paper PMC4862054.
# Columns and labels:
# Settings in all cases: 72 h
# [1] = tested on: MDA-MB-231
# Description: (§1)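 Drug sensitivity and resistance testing (DSRT) of breast cancer cell lines in 384-well plates, 5 concentrations in 10-fold dilutions over a compound-specific 10,000-fold range. After 72 h, cytotoxicity was read by CellTox Green fluorescence and viability by CellTiter-Glo luminescence (multiplexed), normalised to DMSO and benzethonium chloride controls. EC50 is the inflection point of the fitted dose-response curve (bottom asymptote free, so it can be relative for partial curves) and is censored at the highest tested concentration. Rows with DSS 0 (no meaningful response) were excluded.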
# [2] = tested on: MDA-MB-468
# Description: as §1
# [3] = tested on: CAL-120
# In short: (§2)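 Seeding of breast cancer cell lines (20 µl suspension) was done into 384-well plates pre-loaded with compound at 5 concentrations, 10-fold apart, covering a compound-specific 10,000-fold range. The plates were incubated for 72 h, read for CellTox Green fluorescence (485/520 nm), and then read for CellTiter-Glo luminescence after 10 min at room temperature. Every plate was normalised to 0.1 % DMSO and a positive kill control. Curve fitting gave the EC50, censored at the top concentration.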
# [4] = tested on: HDQ-P1
# In short: as §2
# [5] = tested on: BT-474
# In short: as §2
# [6] = tested on: MDA-MB-436
# In short: as §2
# [7] = tested on: BT-549
# In short: as §2
# [8] = tested on: MDA-MB-231; remark: listed apart in the source
# In short: as §2
# [9] = tested on: MDA-MB-468; remark: listed apart in the source
# In short: as §2
# [10] = tested on: Hs578T
# Description: as §1
# [11] = tested on: HCC1599
# In short: (§3)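 The reported EC50 was fitted from percent-inhibition dose-response curves and censored at the highest concentration. Breast cancer cell lines (20 µl suspension) were added to 384-well plates containing compound in 5 µl medium and incubated 72 h, and viability was read with 2.5 µl CellTiter-Blue over 2 h at 37 °C at 560/590 nm. Each plate was normalised to vehicle and a positive kill control and checked by Z'-factor, and rows with zero drug sensitivity score were dropped.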
# [12] = tested on: HCC1937
# In short: as §3
# [13] = tested on: CAL-148
# In short: as §3
# [14] = tested on: HDQ-P1; remark: listed apart in the source
# In short: as §3
# [15] = tested on: MDA-MB-453
# In short: as §3
# [16] = tested on: DU-4475
# In short: as §3
# [17] = tested on: CAL-51
# In short: as §3
# [18] = tested on: CAL-85-1
# In short: as §3
# [19] = tested on: CAL-120; remark: listed apart in the source
# In short: as §3
# [20] = tested on: SK-BR-3
# In short: as §3
# [21] = tested on: Hs578T; remark: listed apart in the source
# In short: as §3
# [22] = tested on: BT-474; remark: listed apart in the source
# In short: as §3
# [23] = tested on: MDA-MB-436; remark: listed apart in the source
# In short: as §3
# [24] = tested on: BT-549; remark: listed apart in the source
# In short: as §3
# [25] = tested on: MDA-MB-231; remark: listed apart in the source
# In short: as §3
# [26] = tested on: MDA-MB-468; remark: listed apart in the source
# In short: as §3
# [27] = tested on: HCC1143
# In short: as §3
# [28] = tested on: MFM-223
# In short: as §3
# [29] = tested on: SK-BR-3; remark: listed apart in the source
# In short: as §2
# [30] = tested on: Hs578T; remark: listed apart in the source
# In short: as §2
# [31] = tested on: CAL-51; remark: listed apart in the source
# In short: as §2
# [32] = tested on: CAL-85-1; remark: listed apart in the source
# In short: as §2
# [33] = tested on: HCC1937; remark: listed apart in the source
# In short: as §2
# [34] = tested on: CAL-51; remark: listed apart in the source
# Description: as §1
# [35] = tested on: MDA-MB-436; remark: listed apart in the source
# Description: as §1
# [36] = tested on: BT-549; remark: listed apart in the source
# Description: as §1
# [37] = tested on: CAL-148; remark: listed apart in the source
# In short: as §2
# [38] = tested on: HCC1599; remark: listed apart in the source
# In short: as §2
# [39] = tested on: DU-4475; remark: listed apart in the source
# In short: as §2
# [40] = tested on: HCC1143; remark: listed apart in the source
# In short: as §2
# [41] = tested on: MFM-223; remark: listed apart in the source
# In short: as §2
structure (smiles),measurement,setting,value
CC[C@H](Nc1ncnc2[nH]cnc12)c1nc2cccc(F)c2c(=O)n1-c1ccccc1 [GS-1101],"EC50, CellTox Green",[1],8630 nM
same,"EC50, CellTox Green",[2],1430 nM
same,"EC50, CellTiter-Glo",[3],8050 nM
same,"EC50, CellTiter-Glo",[4],4300 nM
same,"EC50, CellTiter-Glo",[5],2950 nM
same,"EC50, CellTiter-Glo",[6],6900 nM
same,"EC50, CellTiter-Glo",[7],4670 nM
same,"EC50, CellTiter-Glo",[8],4740 nM
same,"EC50, CellTiter-Glo",[9],7440 nM
N#Cc1ccc(C(c2ccc(C#N)cc2)n2cncn2)cc1 [Letrozole],"EC50, CellTox Green",[10],> 10000 nM
same,"EC50, CellTiter-Blue viability",[11],311 nM
same,"EC50, CellTiter-Blue viability",[12],> 10000 nM
CCN(CC)CCCC(C)Nc1c2ccc(Cl)cc2nc2ccc(OC)cc12 (stereo not drawn) [Mepacrine],"EC50, CellTox Green",[2],> 50000 nM
same,"EC50, CellTiter-Blue viability",[13],1140 nM
same,"EC50, CellTiter-Blue viability",[14],833 nM
same,"EC50, CellTiter-Blue viability",[15],1260 nM
same,"EC50, CellTiter-Blue viability",[16],1600 nM
same,"EC50, CellTiter-Blue viability",[17],1950 nM
same,"EC50, CellTiter-Blue viability",[18],1800 nM
same,"EC50, CellTiter-Blue viability",[19],1120 nM
same,"EC50, CellTiter-Blue viability",[20],1520 nM
same,"EC50, CellTiter-Blue viability",[21],1980 nM
same,"EC50, CellTiter-Blue viability",[22],1760 nM
same,"EC50, CellTiter-Blue viability",[12],519 nM
same,"EC50, CellTiter-Blue viability",[23],1290 nM
same,"EC50, CellTiter-Blue viability",[24],1440 nM
same,"EC50, CellTiter-Blue viability",[25],614 nM
same,"EC50, CellTiter-Blue viability",[26],1430 nM
same,"EC50, CellTiter-Blue viability",[27],1520 nM
same,"EC50, CellTiter-Blue viability",[28],2220 nM
C[C@H]1C[C@@H]2[C@H]([C@@H](O)C[C@@]3(C)[C@H]2CC[C@]3(O)C(=O)CO)[C@@]2(C)C=CC(=O)C=C12 [Methylprednisolone],"EC50, CellTiter-Blue viability",[15],27.7 nM
same,"EC50, CellTiter-Glo",[3],23.5 nM
same,"EC50, CellTiter-Blue viability",[24],520 nM
O=C(O)C(=O)O.[NH-][C@@H]1CCCC[C@H]1[NH-].[Pt+2] [Oxaliplatin],"EC50, CellTiter-Blue viability",[13],5670 nM
same,"EC50, CellTiter-Blue viability",[15],7470 nM
same,"EC50, CellTiter-Blue viability",[16],9220 nM
same,"EC50, CellTiter-Blue viability",[17],9110 nM
same,"EC50, CellTiter-Blue viability",[20],9660 nM
same,"EC50, CellTiter-Blue viability",[11],820 nM
same,"EC50, CellTiter-Blue viability",[12],4810 nM
same,"EC50, CellTiter-Blue viability",[23],4310 nM
same,"EC50, CellTiter-Blue viability",[24],3550 nM
same,"EC50, CellTiter-Blue viability",[26],3250 nM
same,"EC50, CellTiter-Blue viability",[27],8310 nM
Nc1nc2[nH]cc(CCc3ccc(C(=O)N[C@@H](CCC(=O)O)C(=O)O)cc3)c2c(=O)[nH]1 [Pemetrexed],"EC50, CellTox Green",[10],9350 nM
same,"EC50, CellTox Green",[1],2830 nM
same,"EC50, CellTox Green",[2],8620 nM
same,"EC50, CellTiter-Blue viability",[18],878 nM
same,"EC50, CellTiter-Glo",[29],23.1 nM
same,"EC50, CellTiter-Glo",[30],47.4 nM
same,"EC50, CellTiter-Glo",[5],408 nM
same,"EC50, CellTiter-Glo",[31],2.23 nM
same,"EC50, CellTiter-Glo",[32],41.1 nM
same,"EC50, CellTiter-Glo",[33],64.1 nM
same,"EC50, CellTiter-Glo",[6],30.3 nM
same,"EC50, CellTiter-Glo",[8],652 nM
same,"EC50, CellTiter-Blue viability",[19],> 10000 nM
same,"EC50, CellTiter-Blue viability",[20],116 nM
same,"EC50, CellTiter-Blue viability",[27],> 10000 nM
CC[C@H](C)C(=O)O[C@H]1C[C@H](O)C=C2C=C[C@H](C)[C@H](CC[C@@H](O)C[C@@H](O)CC(=O)O)[C@H]21 [Pravastatin],"EC50, CellTox Green",[34],3380 nM
same,"EC50, CellTox Green",[35],15.7 nM
same,"EC50, CellTox Green",[36],> 10000 nM
same,"EC50, CellTox Green",[2],5470 nM
same,"EC50, CellTiter-Glo",[3],2310 nM
same,"EC50, CellTiter-Glo",[29],3820 nM
same,"EC50, CellTiter-Glo",[37],6540 nM
same,"EC50, CellTiter-Glo",[4],4740 nM
same,"EC50, CellTiter-Glo",[38],3060 nM
same,"EC50, CellTiter-Glo",[5],2340 nM
same,"EC50, CellTiter-Glo",[39],6590 nM
same,"EC50, CellTiter-Glo",[31],78 nM
same,"EC50, CellTiter-Glo",[32],8620 nM
same,"EC50, CellTiter-Glo",[33],5960 nM
same,"EC50, CellTiter-Glo",[6],27.6 nM
same,"EC50, CellTiter-Glo",[7],2640 nM
same,"EC50, CellTiter-Glo",[9],5910 nM
same,"EC50, CellTiter-Glo",[40],2450 nM
same,"EC50, CellTiter-Glo",[41],> 10000 nM
